Article PMC6749236, “Synthesis of Novel 2-(Het)arylpyrrolidine Derivatives and Evaluation of Their Anticancer and Anti-Biofilm Activity” (Molecules, 2019)
Values joined by “and” are separate entries in the source; they are usually repeats but may differ in a detail not shown here. Equal values may be shown once. Marks after values point to notes of the source that are not given here.

Legend:
M-Hela = assay: Cytotoxicity assay (Cytell Cell Imaging, DAPI/propidium iodide), cancer cell line; assay type: cell-based; settings: Homo sapiens; M-Hela; tested at 1–100 µM; three independent experiments; read-out: IC50 Cancer Cell Line M-Hela
Chang liver cell line = assay: Cytotoxicity assay (Cytell Cell Imaging), normal cell line; assay type: cell-based; settings: Homo sapiens, tested at 1–100 µM, three independent experiments, read-out: IC50 Normal Cell Line Chang Liver
[1] = test system: Acinetobacter calcoaceticus VKPM B-10353; assay: Biofilm formation, crystal violet assay; assay type: cell-based; settings: A. calcoaceticus VKPM B-10353; for Biofilm Formation: control = 100%
Method: (§1) Bacterial strains and cultivation conditions. For the detection of biofilms, formation strains Vibrio aquamarinus DSM 26054 and Acinetobacter calcoaceticus VKPM B-10353 were used. These strains form biofilms, making them useful for studying biofilms.
(§2) The bacterial strains Acinetobacter calcoaceticus VKPM B-10353, E. coli MG1655 (pRecA-lux), and E. coli MG1655 (pSoxS-lux) were cultivated in Luria–Bertani (LB) medium under constant shaking to early exponential phase at 37 °C. Cells were used immediately for stress induction tests. One hundred micrograms of ampicillin per milliliter were added into LB medium at cultivation of E. coli MG1655 (pRecA-lux) and E. coli MG1655 (pSoxS-lux). Strain V. aquamarinus DSM 26054 was grown in LB medium supplemented with 3% NaCl.
(§3) The test compounds were dissolved in DMSO to the concentration of 1 × 10^−2 M. Then, they were diluted with ethanol. The control solutions were analogous dilutions of DMSO in ethanol. The tested compounds were also compared with the standard antibiotic azithromycin. Azithromycin was dissolved in DMSO to the concentration of 5 × 10^−3 M and then diluted with deionized water.
(§4) Test system for evaluation of biofilms production. To quantify the formation of biofilms, the crystal violet assay was used, with some modifications. The necessary concentrations of the test compounds were prepared as described above.
(§5) V. aquamarinus DSM 26054 was cultivated for 24 h in LB medium supplemented with 3% NaCl in the Innova 40R shaker incubator (New Brunswick Scientific, USA) at 25 °C and 200 rpm. A. calcoaceticus VKPM B-10353 was cultivated for 24 h in LB medium in the Innova 40R shaker incubator (New Brunswick Scientific, Enfield, CT, USA) at 30 °C and 200 rpm. Then, the suspensions of the daily culture of V. aquamarinus DSM 26054 and A. calcoaceticus VKPM B-10353 were diluted with LB medium supplemented with 3% NaCl to the density of 1 × 10^8 cells/mL.
(§6) The resulting suspension (180 μL) was added to the wells of a polystyrene microplate (Nuova Aptaca, Canelli, Italy). To some of the wells, 20 μL of the test substances at various concentrations were added. Since solvents used could also influence the biofilm formation, 20 μL of the appropriate solvent was added to the other part of the wells at same dilutions (control). Six replicates were done for each treatment and control. The microplate was covered with a lid and wrapped with Parafilm (Bemis Company, Inc., Oshkosh, WI, USA).
(§7) After incubation at 25 °C for 72 h, biofilms were stained. The contents in the wells were removed by means of a dispenser. The wells were then carefully washed three times with 250 μL of sterile saline. The microplates were shaken to remove all non-adherent bacteria. Biofilms were fixed with 200 μL of 96% ethanol for 15 min. After the microplates had dried in air, 200 μL of 0.5% crystal violet was introduced into the wells. After 10 min, the dye was removed. The excess dye was removed by washing with water three times. After the microplates were air-dried, the dye in the wells bound to biofilms was dissolved with 200 μL of 96% ethanol. The extraction level (absorption) of crystal violet by ethanol was measured after 60 minutes at a wavelength of 570 nm using a FLUOstar Omega microplate reader (BMG Labtech, Offenburg, Germany) in optical density units (OD570). The intensity of biofilm formation directly corresponds to the intensity of staining of the contents of the wells with the dye. Biofilm formation was determined by the difference between the mean OD readings obtained in the presence of compounds and the control.
(§8) Each experiment was performed in triplicate. The values were expressed as mean + SD. Student’s t-test was used to compare these values. Differences were considered statistically significant at p < 0.05.

[2] = test system: Vibrio aquamarinus DSM 26054; assay: Biofilm formation, crystal violet assay; assay type: cell-based; settings: V. aquamarinus DSM 26054, control = 100%
Method: as §1, §2, §3, §4, §5, §6, §7, §8

[3] = test system: Escherichia coli MG1655 (pRecA-lux); assay: Genotoxicity, bacterial lux-biosensor; assay type: cell-based
From the text: (§9) E. coli MG1655 (pRecA-lux) was used for the evaluation of the genotoxicity of the synthesized compounds. The biosensor with the PrecA promotor fixes the presence of the factors causing damage of DNA in a cell. The biosensor E. coli MG1655 (pSoxS-lux) was used for the evaluation of prooxidant activity. The biosensor with the PsoxS promoter fixes the production of superoxide anion and NO [75]. Bioluminescent strains were obtained by the transformation of E. coli MG1655 by hybrid plasmids pRecA-lux, pSoxS-lux. The gene cassette luxCDABE Photorhabdus luminescens under the control PrecA promoters was used in this biosensor. This plasmid was created on the basis of pBR322 and contained a selective marker of ampicillin resistance (Amp gene). The strains were kindly furnished by Manukhov I.V., Federal State Unitary Enterprise “GosNIIGenetika”).
as §2
(§10) Biosensors assay procedure. The detailed protocol of toxicity testing by means of a bacterial lux-biosensors is described in the article.
(§11) Calculation. The criterion of toxic influence was bioluminescence intensity change of the test object in the researched sample in comparison with the control sample.
(§12) The induction factor (I) was defined as the relation of luminescence intensity of a lux-biosensor suspension containing tested sample (Lc) to the luminescence intensity of a lux-biosensor control suspension (Lk): I = Lc/Lk.
If at significant differences from control induction factor values were ≤2, the detected genotoxic effect was evaluated as “weak”, if they were in the range from 2 to 10 as “medium”, and above 10 as “strong”. All the experiments were carried out three times independently.
(§13) Difference reliability of bioluminescence in experiment from control value was estimated by t-criterion with the help of Excel software. The conclusions about sample toxicity were made at p < 0.05.

[4] = test system: E. coli MG1655 (pSoxS-lux); assay: Prooxidant activity, bacterial lux-biosensor; assay type: cell-based, Escherichia coli
From the text: as §9, §2, §10, §11, §12, §13

[5] = concentration range of 10^−9–10^−5 M
[6] = with metabolic activation (+S9), 10^−5 M
[7] = with metabolic activation (+S9), 10^−6 M
[8] = with metabolic activation (+S9), 10^−7 M
[9] = with metabolic activation (+S9), 10^−8 M
[10] = with metabolic activation (+S9), 10^−9 M
[11] = without metabolic activation (-S9), 10^−5 M
[12] = without metabolic activation (-S9), 10^−6 M
[13] = without metabolic activation (-S9), 10^−7 M
[14] = without metabolic activation (-S9), 10^−8 M
[15] = without metabolic activation (-S9), 10^−9 M

| SMILES | IC50 (M-Hela) [µM] | IC50 (Chang liver cell line) [µM] | Biofilm Formation ([1]; 1 × 10^−5 M) | Biofilm Formation ([1]; 1 × 10^−6 M) | Biofilm Formation ([1]; 1 × 10^−7 M) | Biofilm Formation ([1]; 1 × 10^−8 M) | Biofilm Formation ([1]; 1 × 10^−9 M) | Biofilm Formation ([2]; 1 × 10^−5 M) | Biofilm Formation ([2]; 1 × 10^−6 M) | Biofilm Formation ([2]; 1 × 10^−7 M) | Biofilm Formation ([2]; 1 × 10^−8 M) | Biofilm Formation ([2]; 1 × 10^−9 M) | detected genotoxic effect, class [3, 5] | Genotoxicity (induction factor, I) [3, 6] | Genotoxicity (induction factor, I) [3, 7] | Genotoxicity (induction factor, I) [3, 8] | Genotoxicity (induction factor, I) [3, 9] | Genotoxicity (induction factor, I) [3, 10] | Genotoxicity (induction factor, I) [3, 11] | Genotoxicity (induction factor, I) [3, 12] | further results |
| --- | --- | --- | --- | --- | --- | --- | --- | --- | --- | --- | --- | --- | --- | --- | --- | --- | --- | --- | --- | --- | --- |
| O=C(Nc1ccccc1)N1CCCC1c1ccc(Nc2c([N+](=O)[O-])c(Cl)cc3c2no[n+]3[O-])cc1O (stereo not drawn) [6b, 6-Chloro-4-((3-hydroxy-4-(1-(phenylcarbamoyl)pyrrolidin-2-yl)phenyl)amino)-5-nitrobenzo[c][1,2,5]oxadiazole 1-oxide] | 56 ± 4.1 | > 100 | 119.69 * % | 88.44% | 73.93 * % | 70.79 * % | 90.41% | 89.12% | 39.02 * % | 26.04 * % | 15.42 * % | 8.21 * % | medium (in the range from 2 to 10) | 1.23 ± 0.02 | 1.36 ± 0.04 | 1.30 ± 0.02 | 1.31 ± 0.01 | 1.47 ± 0.04 | 1.77 ± 0.04 | 2.15 ± 0.06 | Biofilm formation with respect to control, over the investigated concentrations ([1]; 1 × 10^−9–1 × 10^−5 M): both suppressing and stimulating; detected genotoxic effect, class ([3]; concentration of 10^−5 M): weak (induction factor values were ≤2); Genotoxicity (induction factor, I) [3, 13]: 2.07 ± 0.11; Genotoxicity (induction factor, I) [3, 14]: 2.28 ± 0.12; Genotoxicity (induction factor, I) [3, 15]: 2.34 ± 0.06; Prooxidant activity (induction factor) ([4]; 10^−5 M): 0.89 ± 0.03; Prooxidant activity (induction factor) ([4]; 10^−6 M): 1.24 ± 0.11; Prooxidant activity (induction factor) ([4]; 10^−7 M): 1.04 ± 0.04; Prooxidant activity (induction factor) ([4]; 10^−8 M): 1.21 ± 0.00; Prooxidant activity (induction factor) ([4]; 10^−9 M): 1.03 ± 0.10; prooxidant activity, in words ([4]; 10^−9–10^−5 M): did not possess prooxidant activity; melting point: 165 to 170 °C (dec.) |
| COc1ccc(NC(=O)N2CCCC2c2ccc(Nc3c([N+](=O)[O-])c(Cl)cc4c3no[n+]4[O-])cc2O)cc1 (stereo not drawn) [6c, 6-Chloro-4-((3-hydroxy-4-(1-((4-methoxyphenyl)carbamoyl)pyrrolidin-2-yl)phenyl)amino)-5-nitrobenzo[c][1,2,5]oxadiazole 1-oxide] | 26 ± 1.9 | 62 ± 4.3 | 82.82% | 79.31 * % | 72.77 * % | 55.74 * % | 93.75% | 26.65 * % | 18.28 * % | 9.22% and 9.22 * % | 14.67 * % | 13.54% and 13.54 * % | medium (in the range from 2 to 10) | 1.35 ± 0.02 | 1.54 ± 0.03 | 1.49 ± 0.02 | 1.37 ± 0.02 | 1.30 ± 0.01 | 2.33 ± 0.04 | 2.82 ± 0.05 | genotoxicity under conditions of metabolic activation, in words ([3]; +S9, concentration range of 10^−7–10^−6 M): registered; Genotoxicity (induction factor, I) [3, 13]: 2.64 ± 0.14; Genotoxicity (induction factor, I) [3, 14]: 2.84 ± 0.02; Genotoxicity (induction factor, I) [3, 15]: 2.67 ± 0.07; Prooxidant activity (induction factor) ([4]; 10^−5 M): 0.96 ± 0.09; Prooxidant activity (induction factor) ([4]; 10^−6 M): 1.46 ± 0.03; Prooxidant activity (induction factor) ([4]; 10^−7 M): 1.68 ± 0.20; Prooxidant activity (induction factor) ([4]; 10^−8 M): 1.54 ± 0.20; prooxidant response, in words ([4]; 10^−8–10^−7 M): weak response; Prooxidant activity (induction factor) ([4]; 10^−9 M): 1.11 ± 0.03; melting point: 196 to 202 °C (dec.) |
| O=C(Nc1ccc(F)cc1)N1CCCC1c1ccc(Nc2c([N+](=O)[O-])c(Cl)cc3c2no[n+]3[O-])cc1O (stereo not drawn) [6e, 6-Chloro-4-((4-(1-((4-fluorophenyl)carbamoyl)pyrrolidin-2-yl)-3-hydroxyphenyl)amino)-5-nitrobenzo[c][1,2,5]oxadiazole 1-oxide] | 26 ± 1.8 | 48 ± 3 | 86.50% | 53.27 * % | 55.40 * % | 47.66 * % | 87.92 * % | 39.57 * % | 26.02 * % | 11.01% and 11.01 * % | 17.96 * % | 67.29% | medium (in the range from 2 to 10) | 1.24 ± 0.02 | 1.47 ± 0.04 | 1.45 ± 0.02 | 1.35 ± 0.04 | 1.43 ± 0.01 | 2.00 ± 0.02 | 2.39 ± 0.02 | Genotoxicity (induction factor, I) [3, 13]: 2.46 ± 0.02; Genotoxicity (induction factor, I) [3, 14]: 2.74 ± 0.04; Genotoxicity (induction factor, I) [3, 15]: 2.56 ± 0.10; Prooxidant activity (induction factor) ([4]; 10^−5 M): 0.84 ± 0.04; Prooxidant activity (induction factor) ([4]; 10^−6 M): 1.34 ± 0.10; Prooxidant activity (induction factor) ([4]; 10^−7 M): 1.85 ± 0.15; prooxidant response, in words ([4]; 10^−7 M): weak response; Prooxidant activity (induction factor) ([4]; 10^−8 M): 1.25 ± 0.28; Prooxidant activity (induction factor) ([4]; 10^−9 M): 0.93 ± 0.03; melting point: 175 to 177 °C (dec.) |
